Experimental data published in ChEMBL document CHEMBL5365394, “Design, synthesis and biological evaluation of novel spiro-quinazolinone derivatives as chitin synthase inhibitors and antifungal agents” (Eur J Med Chem, 2023).
≈ marks a conversion by molar mass, not a printed value.

Tests used:
[1] = system: Candida albicans; experiment: Antifungal activity against Candida albicans ATCC 76615 assessed as fungal growth inhibition incubated for 24 hrs by two-fold serial dilution method; format: functional
[2] = system: Cryptococcus neoformans; experiment: Antifungal activity against Fluconazole-resistant Cryptococcus neoformans ATCC 32719R assessed as fungal growth inhibition; format: functional
[3] = system: Cryptococcus neoformans; experiment: Antifungal activity against Cryptococcus neoformans ATCC 32719 assessed as inhibition of cell wall synthesis incubated for 24 hrs in presence of sorbitol; format: functional
[4] = system: Aspergillus flavus; experiment: Antifungal activity against Aspergillus flavus ATCC 16870 assessed as inhibition of cell wall synthesis incubated for 24 hrs in absence of sorbitol; format: functional
[5] = Inhibition of Candida tropicalis ATCC 750 chitin synthase using UDP-GlcNAc as substrate incubated for 1 hr by absorbance based assay
[6] = system: Aspergillus fumigatus; experiment: Synergistic antifungal activity against Aspergillus fumigatus GIMCC 3.19 assessed as fluconazole MIC incubated for 24 hrs in by checkerboard broth microdilution method; format: functional
[7] = system: Aspergillus fumigatus; experiment: Synergistic antifungal activity against Aspergillus fumigatus GIMCC 3.19 assessed as fractional inhibitory concentration index incubated for 24 hrs in presence of polyoxin B by checkerboard broth microdilution method; format: functional
[8] = system: Aspergillus flavus; experiment: Additive antifungal activity against Aspergillus flavus ATCC 16870 assessed as fractional inhibitory concentration index incubated for 24 hrs in presence of polyoxin B by checkerboard broth microdilution method; format: functional
[9] = system: Cryptococcus neoformans; experiment: Synergistic antifungal activity against Cryptococcus neoformans ATCC 32719 assessed as fluconazole MIC incubated for 24 hrs in by checkerboard broth microdilution method; format: functional
[10] = system: Aspergillus fumigatus; experiment: Synergistic antifungal activity against Aspergillus fumigatus GIMCC 3.19 assessed as fractional inhibitory concentration index incubated for 24 hrs in presence of fluconazole by checkerboard broth microdilution method; format: functional
[11] = system: Aspergillus flavus; experiment: Synergistic antifungal activity against Aspergillus flavus ATCC 16870 assessed as polyoxin B MIC incubated for 24 hrs by checkerboard broth microdilution method; format: functional
[12] = system: Candida albicans; experiment: Synergistic antifungal activity against Candida albicans ATCC 76615 assessed as fractional inhibitory concentration index incubated for 24 hrs in presence of polyoxin B by checkerboard broth microdilution method; format: functional
[13] = system: Candida tropicalis; experiment: Inhibition of Candida tropicalis ATCC 750 chitin synthase using […] as substrate at 300 ug/ml incubated for 1 hr by absorbance based assay relative to control; settings: dose 300.0 µg/ml
[14] = system: Aspergillus flavus; experiment: Synergistic antifungal activity against Aspergillus flavus ATCC 16870 assessed as fluconazole MIC incubated for 24 hrs in by checkerboard broth microdilution method; format: functional
[15] = system: Cryptococcus neoformans; experiment: Antifungal activity against Cryptococcus neoformans ATCC 32719 assessed as fungal growth inhibition incubated for 24 hrs by two-fold serial dilution method; format: functional
[16] = system: Aspergillus fumigatus; experiment: Antifungal activity against Fluconazole-resistant Aspergillus fumigatus GIMCC 3.19R assessed as fungal growth inhibition; format: functional
[17] = system: Candida albicans; experiment: Antifungal activity against Fluconazole-resistant Candida albicans ATCC 76615R assessed as fungal growth inhibition; format: functional
[18] = system: Aspergillus flavus; experiment: Antifungal activity against Fluconazole-resistant Aspergillus flavus ATCC 16870R assessed as fungal growth inhibition; format: functional
[19] = system: Candida albicans; experiment: Antifungal activity against Micafungin-resistant Candida albicans ATCC 76615R assessed as fungal growth inhibition; format: functional
[20] = system: Aspergillus fumigatus; experiment: Antifungal activity against Aspergillus fumigatus GIMCC 3.19 assessed as inhibition of cell wall synthesis incubated for 24 hrs in absence of sorbitol; format: functional
[21] = system: Candida albicans; experiment: Synergistic antifungal activity against Candida albicans ATCC 76615 assessed as polyoxin B MIC incubated for 24 hrs by checkerboard broth microdilution method; format: functional
[22] = system: Aspergillus fumigatus; experiment: Antifungal activity against Aspergillus fumigatus GIMCC 3.19 assessed as inhibition of cell wall synthesis incubated for 24 hrs in presence of sorbitol; format: functional
[23] = system: Aspergillus fumigatus; experiment: Synergistic antifungal activity against Aspergillus fumigatus GIMCC 3.19 assessed as polyoxin B MIC incubated for 24 hrs by checkerboard broth microdilution method; format: functional
[24] = system: Candida albicans; experiment: Synergistic antifungal activity against Candida albicans ATCC 76615 assessed as fluconazole MIC incubated for 24 hrs in by checkerboard broth microdilution method; format: functional
[25] = system: Aspergillus flavus; experiment: Antifungal activity against Aspergillus flavus ATCC 16870 assessed as inhibition of cell wall synthesis incubated for 24 hrs in presence of sorbitol; format: functional
[26] = system: Aspergillus flavus; experiment: Synergistic antifungal activity against Aspergillus flavus ATCC 16870 assessed as fractional inhibitory concentration index incubated for 24 hrs in presence of fluconazole by checkerboard broth microdilution method; format: functional
[27] = system: Candida albicans; experiment: Antifungal activity against Candida albicans ATCC 76615 assessed as inhibition of cell wall synthesis incubated for 24 hrs in presence of sorbitol; format: functional
[28] = system: Candida albicans; experiment: Additive antifungal activity against Candida albicans ATCC 76615 assessed as fractional inhibitory concentration index incubated for 24 hrs in presence of fluconazole by checkerboard broth microdilution method; format: functional
[29] = system: Candida albicans; experiment: Antifungal activity against Candida albicans ATCC 76615 assessed as inhibition of cell wall synthesis incubated for 24 hrs in absence of sorbitol; format: functional
[30] = system: Cryptococcus neoformans; experiment: Additive antifungal activity against Cryptococcus neoformans ATCC 32719 assessed as fractional inhibitory concentration index incubated for 24 hrs in presence of polyoxin B by checkerboard broth microdilution method; format: functional
[31] = system: Cryptococcus neoformans; experiment: Additive antifungal activity against Cryptococcus neoformans ATCC 32719 assessed as fractional inhibitory concentration index incubated for 24 hrs in presence of fluconazole by checkerboard broth microdilution method; format: functional
[32] = system: Aspergillus fumigatus; experiment: Antifungal activity against Aspergillus fumigatus GIMCC 3.19 assessed as fungal growth inhibition incubated for 24 hrs by two-fold serial dilution method; format: functional
[33] = system: Cryptococcus neoformans; experiment: Synergistic antifungal activity against Cryptococcus neoformans ATCC 32719 assessed as polyoxin B MIC incubated for 24 hrs in by checkerboard broth microdilution method; format: functional
[34] = system: Aspergillus flavus; experiment: Antifungal activity against Aspergillus flavus ATCC 16870 assessed as fungal growth inhibition incubated for 24 hrs by two-fold serial dilution method; format: functional
[35] = system: Cryptococcus neoformans; experiment: Antifungal activity against Cryptococcus neoformans ATCC 32719 assessed as inhibition of cell wall synthesis incubated for 24 hrs in absence of sorbitol; format: functional
[36] = system: Aspergillus flavus; experiment: Additive antifungal activity against Aspergillus flavus ATCC 16870 assessed as fractional inhibitory concentration index incubated for 24 hrs in presence of fluconazole by checkerboard broth microdilution method; format: functional
[37] = system: Candida albicans; experiment: Additive antifungal activity against Candida albicans ATCC 76615 assessed as fractional inhibitory concentration index incubated for 24 hrs in presence of polyoxin B by checkerboard broth microdilution method; format: functional
[38] = system: Aspergillus fumigatus; experiment: Additive antifungal activity against Aspergillus fumigatus GIMCC 3.19 assessed as fractional inhibitory concentration index incubated for 24 hrs in presence of polyoxin B by checkerboard broth microdilution method; format: functional
[39] = system: Aspergillus fumigatus; experiment: Additive antifungal activity against Aspergillus fumigatus GIMCC 3.19 assessed as fractional inhibitory concentration index incubated for 24 hrs in presence of fluconazole by checkerboard broth microdilution method; format: functional
[40] = system: Cryptococcus neoformans; experiment: Synergistic antifungal activity against Cryptococcus neoformans ATCC 32719 assessed as fractional inhibitory concentration index incubated for 24 hrs in presence of fluconazole by checkerboard broth microdilution method; format: functional
[41] = system: Cryptococcus neoformans; experiment: Synergistic antifungal activity against Cryptococcus neoformans ATCC 32719 assessed as fractional inhibitory concentration index incubated for 24 hrs in presence of polyoxin B by checkerboard broth microdilution method; format: functional

Row | SMILES | MIC [1] [µg/mL] | MIC [2] [µg/mL] | MIC [3] [µg/mL] | MIC [4] [µg/mL] | IC50 [5] [µM] | MIC [6] [µg/mL] | fractional inhibitory concentration index (FICI) [8] | MIC [9] [µg/mL] | MIC [11] [µg/mL] | inhibition [13] [%] | MIC [14] [µg/mL] | MIC [15] [µg/mL] | MIC [16] [µg/mL] | MIC [17] [µg/mL] | MIC [18] [µg/mL] | MIC [19] [µg/mL] | MIC [20] [µg/mL] | MIC [21] [µg/mL] | MIC [22] [µg/mL] | MIC [23] [µg/mL] | other results
1 | O=C(/C=C/C(=O)Nc1ccccc1[N+](=O)[O-])Nc1ccc2c(c1)C(=O)NC1(CCSC1)N2 (stereo not given) | 1 (≈ 2.21 µM) | 8 (≈ 17.6 µM) | 128 | 8 (≈ 17.6 µM) | 102 | 1 | 1.125 | 0.5 | 16 | 81.9 | 2 | 4 (≈ 8.82 µM) | 8 (≈ 17.6 µM) | 8 (≈ 17.6 µM) | 16 (≈ 35.3 µM) | 8 (≈ 17.6 µM) | 4 (≈ 8.82 µM) | 4 | 64 | 2 | fractional inhibitory concentration index (FICI) [7]: 0.625; fractional inhibitory concentration index (FICI) [10]: 0.375; fractional inhibitory concentration index (FICI) [12]: 0.75; MIC [24]: 2 µg/mL; MIC [25]: 128 µg/mL; fractional inhibitory concentration index (FICI) [26]: 1; MIC [27]: 128 µg/mL; fractional inhibitory concentration index (FICI) [28]: 1.125; MIC [29]: 8 µg/mL (≈ 17.6 µM); fractional inhibitory concentration index (FICI) [30]: 1.5; fractional inhibitory concentration index (FICI) [31]: 1.125; MIC [32]: 1 µg/mL (≈ 2.21 µM); MIC [33]: 16 µg/mL; MIC [34]: 1 µg/mL (≈ 2.21 µM); MIC [35]: 8 µg/mL (≈ 17.6 µM)
2 | O=C(/C=C/C(=O)Nc1ccc(Cl)cc1Cl)Nc1ccc2c(c1)C(=O)NC1(CCSC1)N2 (stereo not given) | 8 (≈ 16.8 µM) | 32 (≈ 67 µM) | 128 | 32 (≈ 67 µM) | 137 | 2 | 2 | 2 | 16 | 73.9 | 4 | 8 (≈ 16.8 µM) | 16 (≈ 33.5 µM) | 32 (≈ 67 µM) | 32 (≈ 67 µM) | 16 (≈ 33.5 µM) | 16 (≈ 33.5 µM) | 2 | 128 | 8 | fractional inhibitory concentration index (FICI) [36]: 1.25; fractional inhibitory concentration index (FICI) [37]: 1.25; fractional inhibitory concentration index (FICI) [10]: 0.75; fractional inhibitory concentration index (FICI) [38]: 1.5; MIC [24]: 2 µg/mL; MIC [25]: 256 µg/mL; MIC [27]: 256 µg/mL; fractional inhibitory concentration index (FICI) [28]: 1.5; MIC [29]: 16 µg/mL (≈ 33.5 µM); fractional inhibitory concentration index (FICI) [30]: 1.5; fractional inhibitory concentration index (FICI) [31]: 1.5; MIC [32]: 8 µg/mL (≈ 16.8 µM); MIC [33]: 16 µg/mL; MIC [34]: 8 µg/mL (≈ 16.8 µM); MIC [35]: 16 µg/mL (≈ 33.5 µM)
3 | O=C(/C=C/C(=O)Nc1ccc2c(c1)C(=O)NC1(CCSC1)N2)Nc1ccc(Br)cc1 (stereo not given) | 16 (≈ 32.8 µM) | 8 (≈ 16.4 µM) | 128 | 32 (≈ 65.7 µM) | 117 | 1 | 1.125 | 2 | 2 | 75.3 | 4 | 2 (≈ 4.1 µM) | 16 (≈ 32.8 µM) | 32 (≈ 65.7 µM) | 32 (≈ 65.7 µM) | 16 (≈ 32.8 µM) | 16 (≈ 32.8 µM) | 2 | 256 | 8 | fractional inhibitory concentration index (FICI) [36]: 1.5; fractional inhibitory concentration index (FICI) [39]: 1.125; fractional inhibitory concentration index (FICI) [7]: 1; fractional inhibitory concentration index (FICI) [37]: 1.25; fractional inhibitory concentration index (FICI) [40]: 0.75; fractional inhibitory concentration index (FICI) [41]: 0.75; MIC [24]: 1 µg/mL; MIC [25]: 256 µg/mL; MIC [27]: 128 µg/mL; fractional inhibitory concentration index (FICI) [28]: 1.5; MIC [29]: 16 µg/mL (≈ 32.8 µM); MIC [32]: 8 µg/mL (≈ 16.4 µM); MIC [33]: 4 µg/mL; MIC [34]: 16 µg/mL (≈ 32.8 µM); MIC [35]: 8 µg/mL (≈ 16.4 µM)
4 | Cc1ccc([N+](=O)[O-])cc1NC(=O)/C=C/C(=O)Nc1ccc2c(c1)C(=O)NC1(CCSC1)N2 (stereo not given) | 2 (≈ 4.28 µM) | 32 (≈ 68.4 µM) | 128 | 16 (≈ 34.2 µM) | 123 | 1 | 1.125 | 2 | 2 | 77.4 | 1 | 8 (≈ 17.1 µM) | 16 (≈ 34.2 µM) | 16 (≈ 34.2 µM) | 32 (≈ 68.4 µM) | 16 (≈ 34.2 µM) | 16 (≈ 34.2 µM) | 2 | 128 | 2 | fractional inhibitory concentration index (FICI) [36]: 1.25; fractional inhibitory concentration index (FICI) [39]: 1.125; fractional inhibitory concentration index (FICI) [12]: 0.5; fractional inhibitory concentration index (FICI) [38]: 1.125; MIC [24]: 2 µg/mL; MIC [25]: 256 µg/mL; MIC [27]: 128 µg/mL; fractional inhibitory concentration index (FICI) [28]: 1.5; MIC [29]: 8 µg/mL (≈ 17.1 µM); fractional inhibitory concentration index (FICI) [30]: 1.5; fractional inhibitory concentration index (FICI) [31]: 1.5; MIC [32]: 16 µg/mL (≈ 34.2 µM); MIC [33]: 16 µg/mL; MIC [34]: 16 µg/mL (≈ 34.2 µM); MIC [35]: 16 µg/mL (≈ 34.2 µM)
